Structures are written as SMILES. Peptide text beside a SMILES is read from it.

For series [1], the system named is splenic NK function (YAC-1 tumor targets). Put plainly: Spleen cell NK function against YAC-1 after tail-vein injection. It is filed as in vivo, C3H/HeJ mice. Here is the method: (§1) Leu-Leu-OMe or Leu-Phe-OMe were suspended in PBS, pH 7.4. Then individual C3H/HeJ mice (25 gram size) were administered by tail-vein injection either 2.5×10^-5 moles (6.5 mg) of Leu-Leu-OMe, 2.5×10^-5 moles (7.1 mg) Leu-Phe-OMe, or an equal volume of the PBS diluent, this dose being about 1×10^-3 moles per kg. […] Subsequent to this quiescent period no difference in activity or appearance in the mice was noted. Two hours post-injection, the mice were sacrificed and their spleen cells were assayed for NK function in a standard 4 hour assay against YAC-1 tumor targets. In all mice, total cell recovery ranged […] spleen cells per animal. […] Thus, Leu-Leu-OMe or Leu-Phe-OMe caused a greater than 75% decrease in splenic lytic activity against YAC-1 tumor targets.

Series [2] concerns natural killer cells (NK). Put plainly: NK function: lysis of K562 target cells (51Cr release) after preincubation of lymphocytes with compound. The settings on record: for NK toxicity / effect on NK function, in words: lymphocytes exposed 15 minutes at room temperature (FIG. 4, FIG. 5).
Protocol: PBM were separated from heparinized venous blood of healthy donors by centrifugation over sodium diatrizoate-Ficoll gradients (Isolymph, Gallard-Schlesinger Chemical Mfg. Corp., Carle Place, N.Y.).
All cell exposures to the amino acids, dipeptides or their methyl esters were carried out by suspending cells in Dulbecco's phosphate buffered saline (PBS) and incubating them at room temperature with the reagent at the indicated concentration and time interval.
Percent of control cytotoxicity was calculated using the formula: [formula]
The nature of series [3]: Activity and appearance of mice post-injection. It is filed as in vivo, C3H/HeJ mice. The conditions noted are these: 15-30 minutes post-injection, about 1×10^-3 moles per kg tail-vein. Here is the method: as §1
Series [4] concerns [^3 H]Leu-Leu-OMe uptake by PBL (facilitated transport). Put plainly: Competitive inhibition of [3H]Leu-Leu-OMe uptake. It is filed as cell-based, human. The conditions noted are these: Homo sapiens; unlabeled compound 250 microM; [3H]Leu-Leu-OMe 10 microM (Table 6). Here is the method:
Human peripheral blood lymphocytes (PBL) were incubated in the presence of [^3 H]labeled Leu-Leu-OMe at 22° C. for varying lengths of time. The incubation mixture was then centrifuged through silicone oil to separate the cells from any unbound or non-internalized [^3 HLeu-Leu-OMe. […] At 37° C., levels of [^3 H]Leu-Leu-OMe accumulation by PBL were increased above those seen at 22° C. (see Table 4).

The nature of series [5]: Generation of dipeptide methyl esters from amino acid methyl esters by MP or PMN (TLC). In kind it is in vitro ADME, human. The settings on record: equal concentrations of Leu-OMe, Val-OMe or Phe-OMe added. As to the method: MP or PMN (prepared as in Example 1) at a concentration of 25×10^6 per ml were suspended in PBS and incubated with 25 mM Leu-OMe for 20 minutes at 22~C. Cell suspensions were then centrifuged at 1000 g for 10 minutes and the supernatants harvested and freeze-dried at -70~C., 100 millitorr atmospheric pressure. In some experiments, Leu-OMe-treated MP or PMN were sonicated to increase the yield of the reaction product. Samples were then extracted with methanol for application to thin layer chromatography (TLC) plates ([…]×20 cm^2, Analtech, Newark, Del.). Following development with chloroform/methanol/acetic acid (19 1:12.5 by volume), 1 cm bands were eluted with methanol, dried under nitrogen, and resuspended in 1 ml PBS. Mass spectra were obtained with a Finnegan Model 4021 automated EI/CI, GC/MS system coupled to an Incos data system. […]
In order to determine whether MP or PMN could generate the relevant dipeptide methyl esters from these amino acid methyl esters, TLC analysis of the supernatants of MP and PMN incubated with these compounds was carried out. […] However, when equal concentrations of Leu-OMe, Val-OMe, or Phe-OMe were added to MP or PMN, the concentrations of Val-Val-OMe generated were 50 to 80% of those found for Leu-Leu-OMe, while Phe-Phe-OMe was detected at only 10-30% of the levels of Leu-Leu-OMe. […]

The subject of series [6] is natural killer cells (NK). The conditions noted are these: previous experiments (Thiele et al. 1985); cited from earlier work.

Take `COC(=O)[C@H](Cc1ccccc1)NC(=O)[C@@H](N)CC(C)C` [Leu-Phe-OMe] (H-Leu-Phe-OMe): the “Percent lysis of target cells” value was found to be 3.89% in series [1] (E:T 25:1, 2.5×10^-5 moles per mouse tail-vein, 2 hours post-injection, Control 8.29); 4.68% in series [1] (E:T 50:1, same dosing, Control 12.88); 6.91% in series [1] (E:T 100:1, same dosing, Control 20.60); 11.91% in series [1] (E:T 200:1, same dosing, Control 29.29). Further, the “decrease in splenic lytic activity against YAC-1 tumor targets” value in series [1] (about 1×10^-3 moles per kg tail-vein) is “greater than 75%”. Moreover, in series [2] (concentration which results in 50% loss of human NK function, PBL 15 minutes at 22° C.), the “NK Toxicity (LD50)” value came to 29 micro-M. Moreover, the “NK toxicity / effect on NK function, in words” value in series [2] is listed as “produced concentration-dependent ablation of NK function at concentrations comparable to those at which Leu-Leu-OMe was active”. For the same compound, in series [3], the “activity and appearance post-injection” value was “exhibited decreased activity and an apparent increase in sleep”. The compound further yielded an inhibition at 250 µM in series [4] of 72%.
Take `COC(=O)[C@H](Cc1ccccc1)NC(=O)[C@@H](N)Cc1ccccc1` [Phe-Phe-OMe] (H-Phe-Phe-OMe): the “NK toxicity / effect on NK function, in words” value in series [2] is listed as “less NK toxic than either Leu-Phe-OMe or Phe-Leu-OMe”. Moreover, the “concentration generated by MP or PMN, relative to Leu-Leu-OMe” value in series [5] is given as 10-30%.
With `COC(=O)[C@@H](N)C(C)C` [Val-OMe], in series [6], the “deletion of NK function from human PBM” value is “did not delete NK function from human PBM”.

Usually inhibition stands for the drop in the measured response relative to a control, in per cent. A low value points to little suppression.

Source of the values: patent US5304474A, “Hydrophobic peptide esters and amides” (Board of Regents, The University of Texas System, priority 1991, dated 1994).
